The values that follow come from ChEMBL document CHEMBL5241058, “Pyrazole-based analogs as potential antibacterial agents against methicillin-resistance staphylococcus aureus (MRSA) and its SAR elucidation” (Eur J Med Chem, 2021).

For assay [1], the system named is Staphylococcus aureus. Briefly: Antimicrobial activity against Methicillin-resistant Staphylococcus aureus assessed as bacterial growth inhibition by disc diffusion method. Type of assay: functional.
For assay [2], the system named is Staphylococcus aureus. Briefly: Antimicrobial activity against Methicillin-resistant Staphylococcus aureus ATCC 33592 assessed as bacterial growth inhibition incubated for 20 to 24 hrs by microdilution assay. Particulars: time 20-24 hrs. It is filed as functional. For orientation: Dilution methods test growth across graded concentrations, often in twofold steps.

For assay [3], the system named is Staphylococcus aureus. Briefly: Antimicrobial activity against Methicillin-resistant Staphylococcus aureus ATCC 43300 assessed as bacterial growth inhibition. It is filed as functional.
The subject of assay [4] is Staphylococcus aureus. Briefly: Antimicrobial activity against Methicillin-resistant Staphylococcus aureus assessed as bacterial growth inhibition incubated for 24 hrs by agar disc diffusion method. Type of assay: functional. A general note: Agar diffusion results depend on both activity and mobility in agar.
The test system of assay [5] is Staphylococcus aureus. Briefly: Antimicrobial activity against Methicillin-resistant Staphylococcus aureus assessed as bacterial growth inhibition incubated for 24 hrs by microdilution method. Type of assay: functional.
Assay [6] relates to Staphylococcus aureus. Briefly: Antimicrobial activity against Methicillin-resistant Staphylococcus aureus assessed as bacterial growth inhibition incubated for 24 hrs. Type of assay: functional.
Assay [7] concerns Staphylococcus aureus. Briefly: Antimicrobial activity against Methicillin-resistant Staphylococcus aureus ATCC BAA 1683 assessed as bacterial growth inhibition incubated for 18 hrs by microdilution method. It is filed as functional.
The subject of another assay is Escherichia coli. Briefly: Antimicrobial activity against Escherichia coli ATCC 8739 assessed as bacterial growth inhibition incubated for 18 hrs by microdilution method. It is filed as functional.
The test system of assay [8] is Salmonella enterica subsp. enterica. Briefly: Antimicrobial activity against Salmonella typhimurium […] assessed as bacterial growth inhibition incubated for 18 hrs by microdilution method. It is filed as functional.
The test system of another assay is Pseudomonas aeruginosa. Briefly: Antimicrobial activity against Pseudomonas aeruginosa ATCC 27853 assessed as bacterial growth inhibition incubated for 18 hrs by microdilution method. It is filed as functional.
The next assay has as its system Klebsiella pneumoniae. Briefly: Antimicrobial activity against Klebsiella pneumoniae ATCC 314588 assessed as bacterial growth inhibition incubated for 18 hrs by microdilution method. It is filed as functional.
In assay [9] the test system is Staphylococcus aureus. Briefly: Antimicrobial activity against Staphylococcus aureus 209 assessed as bacterial growth inhibition. Type of assay: functional.
Assay [10] has as its system Staphylococcus aureus. Briefly: Antimicrobial activity against Methicillin-resistant Staphylococcus aureus ATCC 33592 assessed as bacterial growth inhibition incubated for 20 to 24 hrs by microdilution method. It is filed as functional. Particulars: time 20-24 hrs.
In assay [11] the test system is Staphylococcus aureus. Briefly: Antimicrobial activity against Methicillin-sensitive Staphylococcus aureus ATCC 43300 assessed as bacterial growth inhibition incubated for 24 hrs. It is filed as functional. The conditions noted are these: ATCC43300.
The test system of assay [12] is Staphylococcus aureus. Briefly: Antimicrobial activity against Methicillin-sensitive Staphylococcus aureus ATCC 33591 assessed as bacterial growth inhibition by microbroth serial dilution method. It is filed as functional.
Assay [13] relates to Staphylococcus aureus. Briefly: Antimicrobial activity against Methicillin-sensitive Staphylococcus aureus ATCC 33591 assessed as bacterial growth inhibition incubated for 24 hrs. Type of assay: functional.
Assay [14] deals with Staphylococcus aureus. Briefly: Antimicrobial activity against Methicillin-sensitive Staphylococcus aureus ATCC 43300 assessed as bacterial growth inhibition by microbroth serial dilution method. It is filed as functional.
Assay [15] has as its system Staphylococcus aureus. Briefly: Antimicrobial activity against Methicillin-resistant Staphylococcus aureus ATCC 33599 assessed as bacterial growth inhibition. It is filed as functional.
Assay [16] has as its system Staphylococcus aureus. Briefly: Antimicrobial activity against vancomycin intermediate-resistant Staphylococcus aureus assessed as bacterial growth inhibition incubated for 24 hrs by microdilution method. Type of assay: functional.
For assay [17], the system named is Staphylococcus aureus. Briefly: Antibiofilm activity against Methicillin-resistant Staphylococcus aureus USA 300 relative to control. Type of assay: functional.
Assay [18] deals with Staphylococcus aureus. Briefly: Antimicrobial activity against Methicillin-resistant Staphylococcus aureus ATCC 33591 assessed as bacterial growth inhibition incubated for 20 to 24 hrs by microdilution method. The conditions noted are these: time 20-24 hrs. Type of assay: functional.
The subject of assay [19] is Staphylococcus aureus. Briefly: Antimicrobial activity against Methicillin-resistant Staphylococcus aureus BAA-2312 assessed as bacterial growth inhibition. It is filed as functional.
In assay [20] the test system is Staphylococcus aureus. Briefly: Antimicrobial activity against Methicillin-sensitive Staphylococcus aureus ATCC 25923 assessed as bacterial growth inhibition. It is filed as functional.
Assay [21] relates to Staphylococcus aureus. Briefly: Antimicrobial activity against Methicillin-resistant Staphylococcus aureus ATCC 33591 assessed as bacterial growth inhibition. Type of assay: functional.
The subject of assay [22] is Staphylococcus aureus. Briefly: Antimicrobial activity against Methicillin-resistant Staphylococcus aureus ATCC 33592 assessed as bacterial growth inhibition. It is filed as functional.
Assay [23] relates to Staphylococcus aureus. Briefly: Antimicrobial activity against Methicillin-resistant Staphylococcus aureus ATCC 700699 assessed as bacterial growth inhibition. Type of assay: functional.
Assay [24] has as its system Staphylococcus aureus. Briefly: Antimicrobial activity against Methicillin-resistant Staphylococcus aureus ATCC 3167 assessed as bacterial growth inhibition. It is filed as functional.
Assay [25] concerns Staphylococcus aureus. Briefly: Antimicrobial activity against Methicillin-resistant Staphylococcus aureus BFSA33 assessed as bacterial growth inhibition by microdilution method. Particulars: BFA33. It is filed as functional.
The test system of assay [26] is Staphylococcus aureus. Briefly: Antimicrobial activity against Methicillin-resistant Staphylococcus aureus BFSA48 assessed as bacterial growth inhibition by microdilution method. It is filed as functional. The conditions noted are these: BFA48.
The test system of assay [27] is Staphylococcus aureus. Briefly: Antimicrobial activity against Methicillin-resistant Staphylococcus aureus BFSA31 assessed as bacterial growth inhibition by microdilution method. It is filed as functional. Particulars: BFA31.
The test system of assay [28] is Staphylococcus aureus. Briefly: Antimicrobial activity against Methicillin-resistant Staphylococcus aureus BFSA25 assessed as bacterial growth inhibition by microdilution method. It is filed as functional. The conditions noted are these: BFA25.
Assay [29] deals with Staphylococcus aureus. Briefly: Antimicrobial activity against Methicillin-resistant Staphylococcus aureus BFSA30 assessed as bacterial growth inhibition by microdilution method. Type of assay: functional. The conditions noted are these: BFA30.
The test system of assay [30] is Staphylococcus aureus. Briefly: Antimicrobial activity against Methicillin-resistant Staphylococcus aureus BFSA32 assessed as bacterial growth inhibition by microdilution method. It is filed as functional. The conditions noted are these: BFA32.
Assay [31] concerns Staphylococcus aureus. Briefly: Antimicrobial activity against Staphylococcus aureus LysRs assessed as bacterial growth inhibition by microdilution method. It is filed as functional, organism-based.

Usually MIC stands for the lowest concentration that inhibits growth of the organism. A word on the MBC: it is the lowest tested concentration that kills the bacteria rather than only halting them. As a reminder, the IC50 is the concentration that gives 50% inhibition.

Converted amounts (≈) assume the structure as drawn. Where only a bound is given, the exact number is not on record here.

In the case of `COc1ccc(Nc2n[nH]c(/N=C\c3ccccc3)c2C(=O)Nc2ccc(C)cc2)cc1`, the MIC in the assay on Staphylococcus aureus [1] stood at 15.6 µg/mL (≈ 36.7 µM).
As for `O=C(O)c1ccc(-n2cc(/C=N/N(c3ccccc3)c3ccccc3)c(-c3cc4ccccc4oc3=O)n2)cc1`, the MIC in the assay on Staphylococcus aureus [2] was 3.12 µg/mL (≈ 5.93 µM).
With `COc1ccc(-n2nc(C(C)(C)C)cc2NC(=O)c2cccc(Cl)c2)cc1`, the MIC in the assay on Staphylococcus aureus [3] turned out to be 3.12 µg/mL (≈ 8.13 µM).
`CCOC(=O)c1nn(-c2ccccc2)cc1C(=O)c1ccc(S(=O)(=O)c2ccccc2)cc1`: in the assay with Staphylococcus aureus [4], the “inhibition zone (IZ)” value is 14 mm. Besides, the MIC in the assay on Staphylococcus aureus [5] was 25 µg/mL (≈ 54.3 µM).
In the case of `Cc1nn(-c2ccccc2)c(Cl)c1/C=C/c1ccc([N+](=O)[O-])cc1[N+](=O)[O-]`, the MIC in the assay with Staphylococcus aureus [6] came to 25 µg/mL (≈ 65 µM).
As for `Fc1ccc(-c2nn(-c3ccccc3)cc2-c2nc3ccccn3c2Cc2ccccc2)cc1`, the MIC is 2.5 µg/mL (≈ 5.62 µM) with Staphylococcus aureus [7]; less than 1 µg/mL in the assay with Escherichia coli; less than 1 µg/mL in [8]; less than 1 µg/mL in the assay with Pseudomonas aeruginosa; less than 1 µg/mL in the assay with Klebsiella pneumoniae.
As to `COc1nnc2nn(C)cnc1-2`, the MIC with Staphylococcus aureus [9] came out at 50 µg/mL (≈ 303 µM).
`O=C(O)c1ccc(-n2cc(/C=N/Nc3cccc(Cl)c3F)c(-c3cccc(F)c3)n2)cc1`: the MIC in the assay with Staphylococcus aureus [10] turned out to be 0.78 µg/mL (≈ 1.72 µM).
With `CC(=O)NC[C@H]1CN(c2ccc(N3CCOCC3)c(F)c2)C(=O)O1` [LINEZOLID], the MBC was found to be 46.2 µM (≈ 15.6 µg/mL) in the assay on Staphylococcus aureus [11], 46.2 µM (≈ 15.6 µg/mL) with Staphylococcus aureus [13] and 46.2 µM in the assay on Staphylococcus aureus [14]. Besides, the MIC with Staphylococcus aureus [12] came to 2.6 µM; in the assay on Staphylococcus aureus [12] (Staphylococcus aureus, ATCC 33591, read-out: MIC), 5.2 µM; in the assay on Staphylococcus aureus [14], 2.6 µM.
On to `CN[C@H](CC(C)C)C(=O)N[C@H]1C(=O)N[C@@H](CC(N)=O)C(=O)N[C@H]2C(=O)N[C@H]3C(=O)N[C@H](C(=O)N[C@H](C(=O)O)c4cc(O)cc(O)c4-c4cc3ccc4O)[C@H](O)c3ccc(c(Cl)c3)Oc3cc2cc(c3O[C@@H]2O[C@H](CO)[C@@H](O)[C@H](O)[C@H]2O[C@H]2C[C@](C)(N)[C@H](O)[C@H](C)O2)Oc2ccc(cc2Cl)[C@H]1O` [VANCOMYCIN], for which, in the assay on Staphylococcus aureus [15], the MBC was found to be 6.25 µg/mL (≈ 4.31 µM). Further, the MIC is 3.12 µg/mL (≈ 2.16 µM) in the assay on Staphylococcus aureus [15] and less than 0.125 µg/mL with Staphylococcus aureus [16]. The compound further gave an Activity with Staphylococcus aureus [17] of 18%.
With `O=C(O)c1ccc(-n2cc(/C=N/Nc3ccc(Cl)cc3Cl)c(-c3cccc(F)c3)n2)cc1`, in the assay with Staphylococcus aureus [18], the MIC worked out at 0.39 µg/mL (≈ 0.831 µM).
On to `O=C(O)c1ccc(-n2cc(/C=N\N(c3ccccc3)c3ccccc3)c(-c3cc4cc(F)ccc4oc3=O)n2)cc1`, for which the MIC with Staphylococcus aureus [19], with Staphylococcus aureus [20], in the assay with Staphylococcus aureus [21], with Staphylococcus aureus [22] and in the assay with Staphylococcus aureus [23] was 3.12 µg/mL (≈ 5.74 µM) throughout.
Regarding `COc1cc(/C=C/c2cc(/C=C/c3ccc(OCC(=O)NC45CC6CC(CC4C6)C5)c(OC)c3)[nH]n2)ccc1OCC(=O)NC12CC3CC(CC1C3)C2`, the MIC in the assay on Staphylococcus aureus [24] turned out to be 10 µM (≈ 7.19 µg/mL).
Consider `CCCSC(=S)c1c(C)nn(-c2ccccc2)c1O`, for which the MIC with Staphylococcus aureus [25], with Staphylococcus aureus [26], in the assay with Staphylococcus aureus [27], in the assay with Staphylococcus aureus [28], in the assay with Staphylococcus aureus [29] and in the assay with Staphylococcus aureus [30] was 4 µg/mL throughout.
Consider `CCc1c2[nH]c(=O)[nH]c(=O)c2nn1CC1CCC1`, for which, in the assay with Staphylococcus aureus [31], the IC50 came to 21.7 µM.
